Earlier results as cited in US9539278B2, “Preparation for use of aspartate and vitamin B12 or biotin for regulating ketone bodies” (N.V. Nutricia, priority 2004, dated 2017).

Tested on: blood ketone body concentrations
Settings: rats, after consumption of high doses of alanine

For `C[C@H](N)C(=O)O` [alanine], the “blood levels of ketone bodies” value is given as “decreased”.
